Source: PubChem BioAssay (NCI)
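All cell lines were grown in 96-well plates and treated with compound for 48 hours. Abbreviation: GI50, concentration required for 50% inhibition of growth. At the TGI there is no net growth.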

Legend:
Test in all cases: DTP human tumour cell line panel, 48 h
OVCAR-3 ovarian = test system: OVCAR-3 ovarian
PC-3 prostate = test system: PC-3 prostate
M14 melanoma = test system: M14 melanoma
HOP-62 NSCLC = test system: HOP-62 NSCLC
SNB-19 CNS = test system: SNB-19 CNS
UACC-62 melanoma = test system: UACC-62 melanoma
MDA-MB-435 = test system: MDA-MB-435
IGROV1 ovarian = test system: IGROV1 ovarian
SW-620 colon = test system: SW-620 colon
MOLT-4 leukemia = test system: MOLT-4 leukemia

Row | Structure (SMILES) | GI50 (OVCAR-3 ovarian) [µM] | TGI (OVCAR-3 ovarian) [µM] | GI50 (PC-3 prostate) [µM] | TGI (PC-3 prostate) [µM] | GI50 (M14 melanoma) [µM] | TGI (M14 melanoma) [µM] | GI50 (HOP-62 NSCLC) [µM] | TGI (HOP-62 NSCLC) [µM] | GI50 (SNB-19 CNS) [µM] | TGI (SNB-19 CNS) [µM] | GI50 (UACC-62 melanoma) [µM] | TGI (UACC-62 melanoma) [µM] | GI50 (MDA-MB-435) [µM] | TGI (MDA-MB-435) [µM] | GI50 (IGROV1 ovarian) [µM] | TGI (IGROV1 ovarian) [µM] | GI50 (SW-620 colon) [µM] | TGI (SW-620 colon) [µM] | GI50 (MOLT-4 leukemia) [µM] | TGI (MOLT-4 leukemia) [µM]
1 | CCOC(=O)c1cn2ncnc(Oc3ccc(NC(=O)NCCN(CC)CC)c(Cl)c3)c2c1C | 8.12 | 35.8 | 3.22 | 15 | 1.89 | 3.75 | 12 | 29.5 | 10.5 | 28.1 | 1.95 | 3.72 | 1.87 | 3.51 | 6.71 | 26.2 | 2.1 | 4.6 | 2.36 | 5.67
2 | O=C1/C(=C/c2ccc(C(F)(F)F)cc2)COc2ccc(O)cc21 | 1.7 | 3.09 | 1.89 | 4.17 | 3.24 | 10.6 | 12.8 | 25.4 | 1.91 | 3.98 | 2.36 | 6.84 | 2.41 | 6.54 | 1.6 | 3.17 | 1.71 | 3.4 | 2.33 | 21.2
3 | O=C1C(Cl)=C(Nc2ccc3c(c2NC2=C(Cl)C(=O)c4ccccc4C2=O)C(=O)c2ccccc2C3=O)C(=O)c2ccccc21 | 1.78 | 7.03 | 1.92 | 12.5 | 1.02 | 2.29 | 2.25 | 5.68 | 2.74 | 10.3 | 1.3 | 2.9 | 0.346 | 1.04 | 1.62 | 4.25 | 2.93 | 10.6 | 3.25 | 17.5
4 | O=C(Nn1c2c(sc1=NC1CC1)C(=O)c1ccccc1C2=O)c1cc2ccc1CCc1ccc(cc1)CC2 | 1.53 | 4.42 | 1.62 | 10.7 | 1.33 | 2.83 | 4.28 | 17.2 | 3.09 | 11.7 | 1.62 | 3.52 | 1.76 | 3.23 | 1.16 | 4.74 | 1.92 | 4.32 | 2.22 | 8.89
5 | O=C1c2c(O)cccc2C(C(=O)CCCC(=O)C2c3cccc(O)c3C(=O)c3c(O)cccc32)c2cccc(O)c21 | – | 0.798 | – | 0.467 | – | 2.48 | – | 2.09 | – | 4.12 | – | 2.04 | – | 2.5 | – | 2.41 | – | 14.3 | – | 17.5
6 | CC1(C)CC(O)CCCCCCOc2c(CN)cccc2NC(=O)c2nc(cnc2N)-c2ccc(cc2)S1(=O)=O (stereo not given) | 0.183 | 3.34 | 0.543 | 3.67 | 0.0927 | 2.58 | 1.41 | 3.75 | 1.66 | 4.46 | 1.67 | 3.3 | 0.558 | 2.16 | 0.148 | 1.48 | 0.629 | 2.36 | < 0.0122 | 2.01
7 | c1cc(-c2cnn3nc(N4CCOCC4)ccc23)nc(NC2CC2)n1 | 8.17 | > 25 | 7.87 | > 25 | 9.04 | > 25 | 9.27 | > 25 | 10.6 | > 25 | 7.76 | > 25 | 9.94 | > 25 | 10.3 | > 25 | 8.9 | > 25 | 13.7 | > 25
8 | COc1ccc(Cn2cc3c(c2-c2ccccc2)CCc2cncnc2-3)cc1 | 3.65 | 12.5 | 8.71 | 31.1 | 4.2 | 18.2 | 12 | 31.3 | 10.2 | 25 | 3.47 | 16.5 | 2.49 | 11.8 | 5.8 | 23.9 | 3.65 | 13.9 | 2.81 | 11.1
9 | CCN1CCN(c2nc(C)cc(N(CCCNc3ccnc4cc(Cl)ccc34)Cc3ccco3)n2)CC1 | 4.29 | 20.3 | 6.87 | 22 | 1.89 | 3.63 | 3.22 | 14.1 | 4.78 | 17.5 | 1.97 | 3.97 | 1.7 | 3.24 | 3.38 | 15.4 | 3.12 | 13 | 3.14 | 16.8
